Source: PubChem BioAssay (NCI)
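1) Cells in 96-well plates. 2) Compound, 48 h, 5 concentrations. 3) Linear interpolation between surrounding doses. 4) Unreached endpoint = highest concentration. TGI: total growth inhibition.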

Experiments:
Assay in all cases: NCI-60 cell line screen, 48 h
[1] = system: M14 melanoma
[2] = system: SNB-75 CNS
[3] = system: BT-549 breast
[4] = system: SK-MEL-5 melanoma
[5] = system: K-562 leukemia
[6] = system: DU-145 prostate
[7] = system: NCI-H23 lung
[8] = system: SW-620 colon
[9] = system: MDA-MB-231 breast
[10] = system: SF-295 CNS
[11] = system: OVCAR-3 ovarian
[12] = system: UACC-257 melanoma
[13] = system: SNB-19 CNS
[14] = system: SF-268 CNS
[15] = system: UO-31 renal
[16] = system: HOP-62 NSCLC
[17] = system: HS 578T breast
[18] = system: T-47D breast
[19] = system: OVCAR-8 ovarian
[20] = system: SK-MEL-28 melanoma
[21] = system: OVCAR-5 ovarian
[22] = system: SR leukemia
[23] = system: RPMI-8226 leukemia
[24] = system: CCRF-CEM leukemia
[25] = system: HCT-15 colon
[26] = system: U251 CNS
[27] = system: RXF 393 renal
[28] = system: CAKI-1 renal
[29] = system: SN12C renal
[30] = system: MOLT-4 leukemia
[31] = system: 786-0 renal
[32] = system: NCI-H522 lung
[33] = system: MDA-N
[34] = system: A549 NSCLC
[35] = system: HCT-116 colon
[36] = system: SK-MEL-2 melanoma
[37] = system: SK-OV-3 ovarian
[38] = system: TK-10 renal
[39] = system: NCI/ADR-RES ovarian
[40] = system: SF-539 CNS
[41] = system: HL-60(TB) leukemia
[42] = system: COLO 205 colon
[43] = system: IGROV1 ovarian
[44] = system: MDA-MB-435
[45] = system: OVCAR-4 ovarian
[46] = system: NCI-H226 lung
[47] = system: HT29 colon
[48] = system: HCC-2998 colon
[49] = system: LOX IMVI melanoma
[50] = system: EKVX NSCLC
[51] = system: MALME-3M melanoma
[52] = system: HOP-92 NSCLC
[53] = system: KM12 colon
[54] = system: NCI-H460 lung
[55] = system: ACHN renal
[56] = system: MCF7 breast
[57] = system: A498 renal
[58] = system: UACC-62 melanoma
[59] = system: PC-3 prostate

CCN(CC)S(=O)(=O)c1ccc2nc(NC(=O)OC)[nH]c2c1
TGI [1]: > 100 µM
TGI [2]: > 100 µM
TGI [3]: > 100 µM
TGI [4]: > 100 µM
TGI [5]: > 100 µM
TGI [6]: > 100 µM
TGI [7]: > 100 µM
TGI [8]: > 100 µM
TGI [9]: > 100 µM
TGI [10]: > 100 µM
TGI [11]: > 100 µM
TGI [12]: > 100 µM
TGI [13]: > 100 µM
TGI [14]: > 100 µM
TGI [15]: > 100 µM
TGI [16]: > 100 µM
TGI [17]: > 100 µM
TGI [18]: > 100 µM
TGI [19]: > 100 µM
TGI [20]: > 100 µM
TGI [21]: > 100 µM
TGI [22]: 83.9 µM
TGI [23]: 47.1 µM
TGI [24]: > 100 µM
TGI [25]: > 100 µM
TGI [26]: > 100 µM
TGI [27]: > 100 µM
TGI [28]: > 100 µM
TGI [29]: > 100 µM
TGI [30]: 61.7 µM
TGI [31]: > 100 µM
TGI [32]: > 100 µM
TGI [33]: 65.9 µM
TGI [34]: > 100 µM
TGI [35]: > 100 µM
TGI [36]: > 100 µM
TGI [37]: > 100 µM
TGI [38]: > 100 µM
TGI [39]: > 100 µM
TGI [40]: 74.3 µM
TGI [41]: 63.4 µM
TGI [42]: > 100 µM
TGI [43]: > 100 µM
TGI [44]: 36.8 µM
TGI [45]: > 100 µM
TGI [46]: > 100 µM
TGI [47]: > 100 µM
TGI [48]: > 100 µM
TGI [49]: > 100 µM
TGI [50]: > 100 µM
TGI [51]: > 100 µM
TGI [52]: > 100 µM
TGI [53]: > 100 µM
TGI [54]: > 100 µM

CC(C)=C1C(=O)c2c(Cl)sc(Cl)c2C1=O
TGI [1]: 37.9 µM
TGI [2]: 59.9 µM
TGI [3]: 42.9 µM
TGI [4]: > 100 µM
TGI [5]: > 100 µM
TGI [6]: 62.1 µM
TGI [7]: 36.6 µM
TGI [55]: 40.8 µM
TGI [8]: 70.5 µM
TGI [56]: > 100 µM
TGI [9]: 57.4 µM
TGI [10]: > 100 µM
TGI [11]: 75.1 µM
TGI [12]: 43 µM
TGI [14]: 79.5 µM
TGI [15]: 60.4 µM
TGI [16]: > 100 µM
TGI [17]: 80.2 µM
TGI [57]: > 100 µM
TGI [18]: 97.6 µM
TGI [19]: 38.3 µM
TGI [20]: 58.3 µM
TGI [21]: > 100 µM
TGI [22]: > 100 µM
TGI [24]: > 100 µM
TGI [25]: 43.3 µM
TGI [26]: 46.3 µM
TGI [28]: 32.7 µM
TGI [29]: 48 µM
TGI [30]: 94.7 µM
TGI [31]: 74.9 µM
TGI [32]: 32.6 µM
TGI [33]: 64 µM
TGI [34]: 81.8 µM
TGI [35]: 33 µM
TGI [36]: 50.6 µM
TGI [37]: > 100 µM
TGI [38]: 56.7 µM
TGI [39]: 54.5 µM
TGI [40]: 50.5 µM
TGI [41]: 90.7 µM
TGI [42]: 38.2 µM
TGI [43]: 46 µM
TGI [58]: 38.3 µM
TGI [44]: 39 µM
TGI [45]: 34.5 µM
TGI [46]: > 100 µM
TGI [47]: 67.8 µM
TGI [49]: 34.2 µM
TGI [50]: 81.1 µM
TGI [51]: 44.5 µM
TGI [52]: 45.5 µM
TGI [53]: 33.8 µM
TGI [54]: > 100 µM

C=C1CC(Cn2cc(C)c(=O)[nH]c2=O)(c2ccc(Cl)cc2)OC1=O (stereo not given)
TGI [1]: 2.54 µM
TGI [2]: 15.4 µM
TGI [3]: 2.86 µM
TGI [4]: 6.43 µM
TGI [5]: 21.1 µM
TGI [6]: 18.3 µM
TGI [7]: 10.4 µM
TGI [55]: 8 µM
TGI [59]: 12.5 µM
TGI [8]: 3.38 µM
TGI [9]: 9.82 µM
TGI [10]: > 34 µM
TGI [12]: 3.75 µM
TGI [13]: > 55.5 µM
TGI [14]: 42.1 µM
TGI [15]: 25.9 µM
TGI [16]: 33 µM
TGI [17]: 25.5 µM
TGI [57]: 22.8 µM
TGI [18]: 5.19 µM
TGI [19]: 15.4 µM
TGI [20]: 4.44 µM
TGI [21]: 29.4 µM
TGI [22]: 8.97 µM
TGI [23]: 1.95 µM
TGI [24]: 4.01 µM
TGI [25]: 2.37 µM
TGI [26]: 30 µM
TGI [28]: 3.93 µM
TGI [29]: 21.2 µM
TGI [30]: 3.87 µM
TGI [31]: 2.99 µM
TGI [32]: 1.35 µM
TGI [33]: 11.6 µM
TGI [34]: 32.2 µM
TGI [35]: 3.29 µM
TGI [36]: 5.48 µM
TGI [37]: 28.1 µM
TGI [38]: 3.61 µM
TGI [39]: 17.9 µM
TGI [40]: 26 µM
TGI [41]: 3.93 µM
TGI [42]: 2.96 µM
TGI [43]: 3.41 µM
TGI [58]: 7.48 µM
TGI [44]: 15.1 µM
TGI [46]: 30.6 µM
TGI [47]: 3.64 µM
TGI [48]: 8.43 µM
TGI [49]: 3.2 µM
TGI [50]: 18.7 µM
TGI [51]: 4.89 µM
TGI [52]: 1.58 µM
TGI [53]: > 43 µM
TGI [54]: 36.1 µM

CC(=O)c1c(SCCN2CCCCCC2)n(-c2ccccc2)c(=S)n(-c2ccccc2)c1=O
TGI [1]: 4.9 µM
TGI [2]: 32.8 µM
TGI [3]: 32.7 µM
TGI [4]: 22.2 µM
TGI [5]: 10.9 µM
TGI [6]: 5.18 µM
TGI [7]: 38.2 µM
TGI [55]: 3.31 µM
TGI [59]: 14.2 µM
TGI [8]: 4.96 µM
TGI [9]: 28.1 µM
TGI [10]: > 100 µM
TGI [11]: 12 µM
TGI [12]: 9.62 µM
TGI [13]: > 100 µM
TGI [14]: 26.3 µM
TGI [16]: > 56.4 µM
TGI [17]: 64.1 µM
TGI [57]: 28.7 µM
TGI [18]: 7.36 µM
TGI [19]: 24.4 µM
TGI [20]: 23.4 µM
TGI [21]: > 69 µM
TGI [22]: 8.58 µM
TGI [24]: 1.24 µM
TGI [25]: 33.7 µM
TGI [26]: 32.5 µM
TGI [27]: 3.41 µM
TGI [28]: 8.26 µM
TGI [29]: 19.5 µM
TGI [31]: 3.36 µM
TGI [32]: 2.95 µM
TGI [33]: 20.3 µM
TGI [34]: 15.2 µM
TGI [35]: 18.5 µM
TGI [36]: 43.2 µM
TGI [37]: > 100 µM
TGI [38]: 4.45 µM
TGI [39]: > 100 µM
TGI [40]: 13.1 µM
TGI [42]: 3.67 µM
TGI [43]: 22.7 µM
TGI [58]: 21 µM
TGI [44]: 25.5 µM
TGI [45]: 79.3 µM
TGI [46]: 61.3 µM
TGI [47]: 20.7 µM
TGI [48]: 14.6 µM
TGI [49]: 12.5 µM
TGI [50]: 40.4 µM
TGI [51]: 3.51 µM
TGI [52]: 20.1 µM
TGI [53]: > 54.1 µM
TGI [54]: > 54.4 µM

COc1cc(/C=C2\N=C(c3ccccc3)N(c3cc4cc(Sc5ccccc5)ccc4[nH]3)C2=O)cc(OC)c1OC
TGI [1]: 22.8 µM
TGI [2]: 56.2 µM
TGI [3]: 31.6 µM
TGI [4]: 20.4 µM
TGI [5]: 17.9 µM
TGI [6]: 37.9 µM
TGI [7]: > 75 µM
TGI [55]: > 75 µM
TGI [8]: 68 µM
TGI [56]: 25.1 µM
TGI [10]: 73.2 µM
TGI [11]: 60.1 µM
TGI [12]: 40.3 µM
TGI [13]: > 75 µM
TGI [14]: 18.2 µM
TGI [15]: 48.9 µM
TGI [16]: 41.2 µM
TGI [17]: > 75 µM
TGI [57]: 42.9 µM
TGI [18]: 34.2 µM
TGI [19]: 41.5 µM
TGI [20]: 35.8 µM
TGI [21]: > 75 µM
TGI [22]: 12.3 µM
TGI [24]: 51.7 µM
TGI [25]: 50.2 µM
TGI [27]: 26.8 µM
TGI [28]: > 75 µM
TGI [29]: 52.6 µM
TGI [30]: 26.9 µM
TGI [31]: 26 µM
TGI [32]: 12.9 µM
TGI [33]: 15.9 µM
TGI [34]: > 75 µM
TGI [35]: 23.9 µM
TGI [37]: > 75 µM
TGI [39]: 59.1 µM
TGI [40]: 24.6 µM
TGI [41]: 31.9 µM
TGI [42]: 21.3 µM
TGI [43]: > 75 µM
TGI [58]: 24.5 µM
TGI [44]: 31 µM
TGI [45]: > 75 µM
TGI [46]: 28.9 µM
TGI [47]: 44.8 µM
TGI [48]: 22.9 µM
TGI [49]: 22.2 µM
TGI [50]: 67.5 µM
TGI [51]: 11.1 µM
TGI [52]: 29.8 µM
TGI [53]: 56.8 µM
TGI [54]: 35.2 µM
